Values quoted from earlier work, collected in patent US8765195B2, “Methods and compositions for increasing sex steroids and growth hormones” (Quality IP Holdings, Inc., priority 2012, dated 2014).

Key:
hGH = conditions: for effect on hGH: other amino acids, literature
[1] = subcutaneous injection of 0.06 IU, GH deficient subjects

| Compound | effect on hGH (hGH) | also measured |
| --- | --- | --- |
| N=C(N)NCCC[C@H](N)C(=O)O [arginine] | – | elevation of serum hGH levels (hGH; 30 g, males): 8.6 fold; increase of hGH levels (hGH; intravenous infusion of 183 mg/kg body weight, females): > 20 fold |
| CSCC[C@H](N)C(=O)O [methionine] | marked increases in hGH | – |
| NCCCC[C@H](N)C(=O)O [lysine] | marked increases in hGH | – |
| N[C@@H](Cc1c[nH]cn1)C(=O)O [histidine] | marked increases in hGH | – |
| NCCC[C@H](N)C(=O)O [ornithine] | marked increases in hGH | – |
| N[C@@H](Cc1ccccc1)C(=O)O [phenylalanine] | marked increases in hGH | – |
| HGH: human growth hormone given by subcutaneous injection to GH deficient subjects | – | mean levels of GH reached [1]: 0.4 ng/mL |
